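Step 1: Grow cells in 96-well plates. Step 2: Expose to compound for 48 hours at 5 concentrations. Step 3: Interpolate endpoints linearly; if unreached, use highest concentration. GI50 = concentration required for 50% inhibition of growth. TGI is the concentration that stops growth completely.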
Columns and labels:
Test in all cases: inhibition of tumour cell growth, NCI panel, 48 h
UACC-62 melanoma = test system: UACC-62 melanoma
786-0 renal = test system: 786-0 renal
MCF7 breast = test system: MCF7 breast
HOP-62 NSCLC = test system: HOP-62 NSCLC
HOP-92 NSCLC = test system: HOP-92 NSCLC
ACHN renal = test system: ACHN renal
SF-268 CNS = test system: SF-268 CNS
A498 renal = test system: A498 renal
SF-539 CNS = test system: SF-539 CNS
KM12 colon = test system: KM12 colon
MOLT-4 leukemia = test system: MOLT-4 leukemia
T-47D breast = test system: T-47D breast
SK-MEL-5 melanoma = test system: SK-MEL-5 melanoma
DU-145 prostate = test system: DU-145 prostate
SF-295 CNS = test system: SF-295 CNS
SK-MEL-2 melanoma = test system: SK-MEL-2 melanoma
M14 melanoma = test system: M14 melanoma
HCC-2998 colon = test system: HCC-2998 colon
NCI-H226 lung = test system: NCI-H226 lung
TK-10 renal = test system: TK-10 renal
MDA-MB-231 breast = test system: MDA-MB-231 breast
MDA-MB-435 = test system: MDA-MB-435
SK-OV-3 ovarian = test system: SK-OV-3 ovarian
LOX IMVI melanoma = test system: LOX IMVI melanoma
A549 NSCLC = test system: A549 NSCLC
RXF 393 renal = test system: RXF 393 renal
HL-60(TB) leukemia = test system: HL-60(TB) leukemia
RPMI-8226 leukemia = test system: RPMI-8226 leukemia
OVCAR-4 ovarian = test system: OVCAR-4 ovarian

Work on `COc1cccc2c1nc1cccc(OC)c1[n+]2[O-]` yielded a TGI (UACC-62 melanoma) of 14.1 µM, a GI50 (786-0 renal) of 3.61 µM and a TGI (786-0 renal) of 15 µM. The GI50 (MCF7 breast) was 0.941 µM, the TGI (MCF7 breast) was 12.9 µM and the GI50 (HOP-62 NSCLC) was 4.14 µM. For the same compound, the TGI (HOP-62 NSCLC) was 17.8 µM, the GI50 (HOP-92 NSCLC) was 2.71 µM and the TGI (HOP-92 NSCLC) was 9.28 µM. It also gave a GI50 (ACHN renal) of 2.2 µM, a TGI (ACHN renal) of 9.96 µM and a GI50 (SF-268 CNS) of 2.65 µM. The TGI (SF-268 CNS) was 13.8 µM, the GI50 (A498 renal) was 2.87 µM and the TGI (A498 renal) was 16.2 µM. It also gave a GI50 (SF-539 CNS) of 3.91 µM, a TGI (SF-539 CNS) of 17.3 µM and a GI50 (KM12 colon) of 11.6 µM. It also gave a TGI (KM12 colon) of 28.4 µM, a GI50 (MOLT-4 leukemia) of 0.46 µM and a TGI (MOLT-4 leukemia) of 2.62 µM. The GI50 (T-47D breast) was 1.7 µM, the TGI (T-47D breast) was 9.26 µM and the GI50 (SK-MEL-5 melanoma) was 6.96 µM. For the same compound, the TGI (SK-MEL-5 melanoma) was 20 µM, the GI50 (DU-145 prostate) was 4.54 µM and the TGI (DU-145 prostate) was 16.9 µM. The GI50 (SF-295 CNS) was 2.11 µM, the TGI (SF-295 CNS) was 7.96 µM and the GI50 (SK-MEL-2 melanoma) was 5.44 µM. For the same compound, the TGI (SK-MEL-2 melanoma) was 18.4 µM, the GI50 (M14 melanoma) was 3.47 µM and the TGI (M14 melanoma) was 16.2 µM. It also gave a GI50 (HCC-2998 colon) of 1.5 µM, a TGI (HCC-2998 colon) of 6.98 µM and a GI50 (NCI-H226 lung) of 10.6 µM. It also gave a TGI (NCI-H226 lung) of 23.8 µM, a GI50 (TK-10 renal) of 16.3 µM and a TGI (TK-10 renal) of 47.6 µM. The GI50 (MDA-MB-231 breast) was 16.4 µM, the TGI (MDA-MB-231 breast) was 41.4 µM and the GI50 (MDA-MB-435) was 16.8 µM. For the same compound, the TGI (MDA-MB-435) was 44.8 µM, the GI50 (SK-OV-3 ovarian) was 3.19 µM and the TGI (SK-OV-3 ovarian) was 15.7 µM. For the same compound, the GI50 (LOX IMVI melanoma) was 4.23 µM, the TGI (LOX IMVI melanoma) was 18.4 µM and the GI50 (A549 NSCLC) was 7.8 µM. The TGI (A549 NSCLC) was 38.9 µM, the GI50 (RXF 393 renal) was 4.36 µM and the TGI (RXF 393 renal) was 22.1 µM. It also gave a GI50 (HL-60(TB) leukemia) of 2.52 µM, a TGI (HL-60(TB) leukemia) of 5.94 µM and a GI50 (RPMI-8226 leukemia) of 7.69 µM. It also gave a TGI (RPMI-8226 leukemia) of 31.4 µM, a GI50 (OVCAR-4 ovarian) of 4.16 µM and a TGI (OVCAR-4 ovarian) of 20.9 µM.

From PubChem BioAssay (NCI)
